Measurements as given in patent publication US20040229873A1, “Treatment of neurodegenerative conditions” (BTG International Limited, priority 2003, published 2004).

Legend:
[1] = tested on: patients suffering from MS; assay: Case studies of MS patients treated with Lamotrigine, compared with matching patients; type: in vivo, human
Excerpt: The average maintenance dose of Lamotrigine in these conditions is 400 mgs per day, but the initial dose or the rate of escalation may cause several side effects.
In the present study, the inventors followed the clinician inventor's clinical practice, which adopted two strategies that had varied from the manufacturer's recommendations. Firstly, a very slow titration process starting with 25 mgs per day increasing the dose gradually (often over several weeks) to avoid adverse events. Secondly, a maintenance dose with mean of 600 mgs per day was applied. Using these two strategies, the inventors observed improvement in the clinical activity of MS and also stabilisation of the disease process. The beneficial effects are illustrated in the following two case studies compared with matching patients who had not been treated with Lamotrigine.
The first treated patient was a person. […] They were referred to the clinician inventor in 1998, and their clinically active disease at that time represented a valid indication for treatment with diseases modifying therapy (β-interferon or Copaxone). However, the therapy could not be started because of financial constraints that were then imposed by their Health Authority. They also complained of sharp pain affecting the legs, which was resistant to several types of analgesia and also resistant to tricyclic antidepressants. Accordingly, treatment was started with Lamotrigine to treat their pain.
The initial dose was 25 mgs per day, which was escalated gradually as outlined above. Their Expanded Disability Status Scale at that time was 2.5. Their painful symptoms improved following Lamotrigine therapy. They also noticed improvement in their other MS-related symptoms, such as muscle spasticity in the legs and daytime fatigue. […] Their EDSS score remained stable at 2.5. Such improvement seemed to be related to Lamotrigine therapy because they had received no immunosuppressive or steroid therapy during the past four years.
A second of Lamotrigine-treated patient was a person, who was diagnosed with relapsing remitting MS five years ago. They also had idiopathic generalised epilepsy since childhood, which was treated with sodium valproate. In the first two years following the diagnosis of MS, they had three clinical relapses. Their seizures also deteriorated and because of this, their anti-epileptic therapy was changed from sodium valproate to Lamotrigine. This drug was introduced at a low dose, and was escalated cautiously as outlined above. Their EDSS score at the beginning of treatment with Lamotrigine was 1.5. […] This improvement seemed to be related to Lamotrigine therapy since they had received no treatment with steroids or immunosuppressive drugs.

[2] = tested on: multiple sclerosis patients; details: cited from earlier work; for treatment of symptoms of MS / clinical positive and negative symptoms of MS: Sakurai and Kanazawa 1999; for clinical positive and negative symptoms of MS: low doses, lidocaine by iv infusion
[3] = seven MS patients, slow titration from 25 mgs per day, maintenance dose with mean of 600 mgs per day

Structure (SMILES): CN(C)CCC=C1c2ccccc2CCc2ccccc21 [Amitriptyline]
- clinical relapses ([1]; Example 1b control, person, active relapsing remitting MS): continued to have clinical relapses on a yearly basis
- painful symptoms ([1]; Example 1b control, person, active relapsing remitting MS, intractable pain): improved

Structure (SMILES): Nc1nnc(-c2cccc(Cl)c2Cl)c(N)n1 [Lamotrigine, 3,5-diamino-6-(2,3-dichlorophenyl)-1,2,4-triazine]
- other MS-related symptoms, such as muscle spasticity in the legs and daytime fatigue ([1]; Example 1a, person): improvement
- clinical relapses ([1]; Example 1a, person, relapsing remitting MS, average of one severe relapse per year before, Lamotrigine from 25 mgs per day escalated gradually): no clinical relapses since 1998
- painful symptoms ([1]; Example 1a, person, sharp pain affecting the legs): improved
- EDSS score ([1]; Example 1a, person, remained stable under Lamotrigine (2.5 at start)): 2.5
- clinical relapses ([1]; Example 2a, person, relapsing remitting MS, three relapses in first two years before Lamotrigine): no clinical relapses
- EDSS score ([1]; Example 2a, person, remained stable under Lamotrigine (1.5 at start)): 1.5
- MS activity ([1]; Examples 3-7, five other patients treated with Lamotrigine): clinical improvement
- clinical activity of MS [1, 3]: improvement
- disease process [1, 3]: stabilisation

Structure (SMILES): NC(=O)N1c2ccccc2C=Cc2ccccc21 [carbamazepine]
- treatment of symptoms of MS [2]: without appropriate success
- disability in multiple sclerosis patients ([2]; even at relatively low doses, Ramsaransing et al (2000)): seriously enhance disability

Structure (SMILES): CCN(CC)CC(=O)Nc1c(C)cccc1C [lidocaine]
- clinical positive and negative symptoms of MS [2]: generally improve clinical positive symptoms rather than worsening negative symptoms

Structure (SMILES): Cc1cccc(C)c1OCC(C)N (stereo not shown) [mexiletine]
- clinical positive and negative symptoms of MS [2]: generally improve clinical positive symptoms rather than worsening negative symptoms

Structure (SMILES): O=C1NC(=O)C(c2ccccc2)(c2ccccc2)N1 [phenytoin]
- treatment of symptoms of MS [2]: without appropriate success
